According to patent US9145373B2, “Certain kynurenine-3-monooxygenase inhibitors, pharmaceutical compositions, and methods of use thereof” (CHDI FOUNDATION, INC., priority 2008, dated 2015):
Where a name gives a salt, the structure may show the parent alone.

The compounds below were run against T1, KMO mouse enzyme (Mus musculus, UniProt Q91WN4) (assay: KMO mouse enzyme assay: L-Kynurenine hydroxylation to 3-Hydroxy-Kynurenine monitored by LC/MS (MRM)). Details: compound at 10 μM; KMO enzyme from mouse liver mitochondria; read-out: INH.Mouse @ 10 μM.
T1 construct: KMO enzyme prepared at Evotec from mouse liver (4-6 weeks old) via mitochondria isolation; from tissue; host or cells: mouse liver (4-6 weeks old), mitochondria isolation, prepared at Evotec
T1 sequence (Q91WN4 whole entry): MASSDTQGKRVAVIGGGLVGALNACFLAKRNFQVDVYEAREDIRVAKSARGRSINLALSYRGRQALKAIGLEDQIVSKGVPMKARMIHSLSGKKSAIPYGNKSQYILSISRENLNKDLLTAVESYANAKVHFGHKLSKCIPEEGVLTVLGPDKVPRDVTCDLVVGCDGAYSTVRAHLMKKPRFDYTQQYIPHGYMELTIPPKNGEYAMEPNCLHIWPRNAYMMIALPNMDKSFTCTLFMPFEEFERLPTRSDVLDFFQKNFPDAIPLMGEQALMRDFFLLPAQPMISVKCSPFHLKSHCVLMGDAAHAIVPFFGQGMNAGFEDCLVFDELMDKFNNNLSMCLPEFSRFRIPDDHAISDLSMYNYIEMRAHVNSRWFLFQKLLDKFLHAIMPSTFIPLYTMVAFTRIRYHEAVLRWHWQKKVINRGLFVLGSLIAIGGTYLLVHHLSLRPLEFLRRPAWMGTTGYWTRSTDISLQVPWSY
Type: biochemical
Method in brief: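 Enzyme is a mitochondrial preparation from 4-6-week-old mouse liver, with L-kynurenine as substrate in potassium phosphate buffer, pH 7.4. 3-Hydroxy-kynurenine formed is quantified by LC/MS using multiple reaction monitoring. Compound stocks were 10 mM in DMSO.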

| Structure (SMILES) | inhibition at 10 µM |
| --- | --- |
| COC(=O)c1ncnc(-c2ccc(Cl)c(Cl)c2)c1F [6-(3,4-Dichloro-phenyl)-5-fluoro-pyrimidine-4-carboxylic acid methyl ester] | 100% |
| Cc1ncccc1NC(=O)c1cc(-c2ccc(Cl)c(Cl)c2)ncn1 [6-(3,4-Dichloro-phenyl)-pyrimidine-4-carboxylic acid (2-methyl-pyridin-3-yl)-amide] | 84.2% |
| COC(=O)c1cc(-c2cccnc2)ncn1 [6-Pyridin-3-yl-pyrimidine-4-carboxylic acid methyl ester trifluoroacetic acid salt] | 74.5% |
| C[C@H](O)CNC(=O)c1cc(-c2cccc(Cl)c2)ncn1 [6-(3-Chloro-phenyl)-pyrimidine-4-carboxylic acid ((S)-2-hydroxy-propyl)-amide] | 87.3% |
| COC(=O)c1cc(-c2ccc(F)c(Cl)c2)ncn1 [6-(3-Chloro-4-fluoro-phenyl)-pyrimidine-4-carboxylic acid methyl ester] | 100% |
| COc1cncc(NC(=O)c2cc(-c3cc(Cl)cc(Cl)c3)ccn2)c1 [4-(3,5-Dichloro-phenyl)-pyridine-2-carboxylic acid (5-methoxy-pyridin-3-yl)-amide] | 52.6% |
| CC1CCN(C(=O)c2cc(-c3cccc(Cl)c3)ncn2)CC1 [[6-(3-Chloro-phenyl)-pyrimidin-4-yl]-(4-methyl-piperidin-1-yl)-methanone] | 88.2% |
| CC1Cc2ccccc2N1C(=O)c1cc(-c2cccc(Cl)c2)ncn1 (centres unmarked) [[6-(3-Chloro-phenyl)-pyrimidin-4-yl]-(2-methyl-2,3-dihydro-indol-1-yl)-methanone] | 76.9% |
| O=C(O)c1ccnc(-c2cccc(Cl)c2)c1 [2-(3-Chloro-phenyl)-isonicotinic acid hydrochloride salt] | 53.5% |
| CN1CCN(C(=O)c2cc(-c3cccc(Cl)c3)ncn2)CC1 [[6-(3-Chloro-phenyl)-pyrimidin-4-yl]-(4-methyl-piperazin-1-yl)-methanone] | 64.3% |
| O=C(c1cc(-c2ccc(Cl)c(Cl)c2)ncn1)N1CCc2cc(Cl)ccc21 [(5-Chloro-2,3-dihydro-indol-1-yl)-[6-(3,4-dichloro-phenyl)-pyrimidin-4-yl]-methanone] | 100% |
| O=S(=O)(O)c1cc(-c2cccc(Cl)c2)ncn1 [Sodium; 6-(3-chloro-phenyl)-pyrimidine-4-sulfonate] | 97.1% |
| Cc1ncc(NC(=O)c2cc(-c3ccc(Cl)c(Cl)c3)ncn2)cn1 [6-(3,4-Dichloro-phenyl)-pyrimidine-4-carboxylic acid (2-methyl-pyrimidin-5-yl)-amide] | 85.6% |
| Cc1cc(NC(=O)c2cc(-c3ccc(Cl)c(Cl)c3)ncn2)on1 [6-(3,4-Dichloro-phenyl)-pyrimidine-4-carboxylic acid (3-methyl-isoxazol-5-yl)-amide] | 100% |
| COC(=O)c1cc(-c2cc(Cl)ccc2F)ncn1 [6-(5-Chloro-2-fluoro-phenyl)-pyrimidine-4-carboxylic acid methyl ester] | 100% |
| O=C(c1cc(-c2cc(Cl)cc(Cl)c2)ccn1)N1CCc2ccccc21 [[4-(3,5-Dichloro-phenyl)-pyridin-2-yl]-(2,3-dihydro-indol-1-yl)-methanone] | 54.5% |
| O=C(c1cc(-c2cccc(Cl)c2)ccn1)N1CCc2ccccc21 [[4-(3-Chloro-phenyl)-pyridin-2-yl]-(2,3-dihydro-indol-1-yl)-methanone] | 100% |
| O=C(c1cc(-c2cccc(Cl)c2)ncn1)N1CCOCC1 [[6-(3-Chloro-phenyl)-pyrimidin-4-yl]-morpholin-4-yl-methanone] | 100% |
| COc1cncc(NC(=O)c2cc(-c3cc(Cl)cc(Cl)c3)ncn2)c1 [6-(3,5-Dichloro-phenyl)-pyrimidine-4-carboxylic acid (5-methoxy-pyridin-3-yl)-amide] | 54.8% |

Now from value to compound:

| inhibition at 10 µM | Structure (SMILES) |
| --- | --- |
| 77.5% | NC(=O)c1cc(-c2cccc(Cl)c2)ncn1 [6-(3-Chloro-phenyl)-pyrimidine-4-carboxylic acid amide] |
| 100% | O=C(Nc1nccs1)c1cc(-c2cccc(Cl)c2)ncn1 [6-(3-Chloro-phenyl)-pyrimidine-4-carboxylic acid thiazol-2-ylamide] |
| 100% | O=C(Nc1cccnn1)c1cc(-c2cccc(Cl)c2)ncn1 [6-(3-Chloro-phenyl)-pyrimidine-4-carboxylic acid pyridazin-3-ylamide] |
| 89.1% | O=C(Nc1ccc(C(F)(F)F)nc1)c1cc(-c2cccc(Cl)c2)ncn1 [6-(3-Chloro-phenyl)-pyrimidine-4-carboxylic acid (6-trifluoromethyl-pyridin-3-yl)-amide] |
| 52.3% | O=C(Nc1cccnc1)c1cc(-c2cccc(Cl)c2)ccn1 [4-(3-Chloro-phenyl)-pyridine-2-carboxylic acid pyridin-3-ylamide] |
| 100% | CC(C)NC(=O)c1cc(-c2cccc(Cl)c2)ncn1 [6-(3-Chloro-phenyl)-pyrimidine-4-carboxylic acid isopropylamide] |
| 97.7% | O=C(Nc1ccc2c(c1)OC(F)(F)O2)c1cc(-c2cccc(Cl)c2)ncn1 [6-(3-Chloro-phenyl)-pyrimidine-4-carboxylic acid (2,2-difluoro-benzo[1,3]dioxol-5-yl)-amide] |
| 85.3% | Cc1ccc(NC(=O)c2cc(-c3cccc(Cl)c3)ncn2)cn1 [6-(3-Chloro-phenyl)-pyrimidine-4-carboxylic acid (6-methyl-pyridin-3-yl)-amide] |
| 100% | O=C(Nc1ccncc1)c1cc(-c2cccc(Cl)c2)ncn1 [6-(3-Chloro-phenyl)-pyrimidine-4-carboxylic acid pyridin-4-ylamide] |
| 72.2% | O=C(Nc1cccnc1)c1cc(-c2cc(Cl)cc(Cl)c2)ncn1 [6-(3,5-Dichloro-phenyl)-pyrimidine-4-carboxylic acid pyridin-3-ylamide] |
| 100% | COc1ccc(NC(=O)c2cc(-c3cccc(Cl)c3)ncn2)cc1 [6-(3-Chloro-phenyl)-pyrimidine-4-carboxylic acid (4-methoxy-phenyl)-amide] |
| 48.3% | O=C(Nc1cccnc1)c1cc(-c2ccc(C(F)(F)F)c(Cl)c2)ncn1 [6-(3-Chloro-4-trifluoromethyl-phenyl)-pyrimidine-4-carboxylic acid pyridin-3-ylamide] |
| 74.3% | C[C@@H](O)CNC(=O)c1cc(-c2cccc(Cl)c2)ncn1 [6-(3-Chloro-phenyl)-pyrimidine-4-carboxylic acid ((R)-2-hydroxy-propyl)-amide] |
